In patent US12371464B2, “Polypeptides and uses thereof” (MEDIMMUNE LIMITED, priority 2020, dated 2025):
Numbered stars: 1 amine (or outer) side, 2 acyl side, 3 side chain; on linkers, the order of the positions; unused ones are H or OH. Bridge positions count the residues as written; N and C are the ends. Square brackets hold non-standard residues; d marks the D form. Side chains are listed from the residue outwards. Peptide text beside a SMILES is read from it. * marks the point of attachment. C18 diacid = O=C(O)CCCCCCCCCCCCCCCCC(=O)*; γGlu = O=C(O)[C@H](CCC(=O)[*:2])N[*:1]; αMeF = C[C@](N)(Cc1ccccc1)C(=O)O; Dab = NCC[C@H](N)C(=O)O; Aib = CC(C)(N)C(=O)O

Assay: Thioflavin T fibrillation assay
Assay type: physicochemical
Settings: 1 mg/mL in 25 mM sodium acetate buffer pH 4.0, 37° C., 6 days, orbital shaking; >144 h = no increase
From the text: Peptide aggregation that form fibrils is an indication of physical instability. Fibril formation in solution poses a significant risk for the stability of injectable peptide drug products. Thioflavin T (ThT) fibrillation assay is a useful tool to assess the aggregation kinetics of a peptide or protein under accelerated and stressed conditions that can be used to forecast the long-term viability of a compound in solution. ThT can selectively bind amyloid fibrils and the resultant complex emits strong fluorescence signal at 482 nm when excited at 450 nm (Anal Biochem. 1989 March; 177 (2): 244-9). Monitoring of the change in fluorescence signal is an established method to study the fibril forming potential of peptides and proteins. ThT (purchased from Sigma Aldrich) stock solution is prepared by dissolving the ThT powder in Milli-Q water and filtered to obtain a 0.25 mM solution. The concentration of the solution is measured at 412 nm using an extinction coefficient of 36 mM-1 cm-1. Test peptides were dissolved at 1 mg/mL in 25 mM sodium acetate buffer pH 4.0. 100 μL aliquot of peptide solution and 5 μL aliquot of ThT solution were placed in a clear bottom black fluorescence 96-well plate. 5 replicates of each test samples were placed in the same row of the plate. Buffer was placed in control wells for baseline correction. All empty wells were filled with water to prevent evaporation. The plate was sealed with aluminium seal and placed in fluorescence plate reader and incubated for 6 days at 37° C. with intermittent orbital shaking at 500 to 750 rpm. The fluorescence intensity was measured every 30 min using excitation at 444 nm and emission at 480 nm. The fibril forming potential of the test peptides was determined by measuring the average time taken to detect an increase in baseline corrected fluorescence intensity.

SMILES | Time taken to detect increase in fluorescence intensity [h]
CC[C@H](C)[C@H](NC(=O)[C@@H]1CCCN1C(=O)CNC(=O)[C@](C)(Cc1ccccc1)NC(=O)[C@H](CC(N)=O)NC(=O)[C@H](CC(N)=O)NC(=O)[C@H](CO)NC(=O)[C@H](CO)NC(=O)[C@H](Cc1c[nH]cn1)NC(=O)[C@@H](NC(=O)[C@H](CC(C)C)NC(=O)[C@H](Cc1ccccc1)NC(=O)[C@H](CC(N)=O)NC(=O)[C@H](C)NC(=O)[C@H](CC(C)C)NC(=O)[C@H](CCCNC(=N)N)NC(=O)[C@H](CCC(N)=O)NC(=O)[C@@H](NC(=O)[C@H](C)NC(=O)[C@@H]1CSSC[C@H](NC(=O)[C@@H](N)CCCCNC(=O)CC[C@H](NC(=O)CC[C@H](NC(=O)CCCCCCCCCCCCCCCCC(=O)O)C(=O)O)C(=O)O)C(=O)N[C@@H](CC(N)=O)C(=O)N[C@@H]([C@@H](C)O)C(=O)N[C@@H](C)C(=O)N[C@@H]([C@@H](C)O)C(=O)N1)[C@@H](C)O)C(C)C)C(=O)N[C@@H](CC(C)C)C(=O)N1CCC[C@H]1C(=O)N1CCC[C@H]1C(=O)N[C@H](C(=O)N[C@@H](CC(N)=O)C(=O)N[C@H](C(=O)NCC(=O)N[C@@H](CO)C(=O)N[C@@H](CCCNC(=N)N)C(=O)N[C@H](C(=O)N[C@@H](Cc1ccc(O)cc1)C(N)=O)[C@@H](C)O)C(C)C)[C@@H](C)O [Peptide 21, K(γE-γE-C18diacid)[CNTATC]ATQRLANFLVHSSNN(αMePhe)GPILPPTNVGSRTY-amide] (H-K([γGlu-γGlu-C18 diacid])CNTATCATQRLANFLVHSSNN[αMeF]GPILPPTNVGSRTY-NH2; disulfide 2-7; N-terminus assumed) | >144
CC[C@H](C)[C@H](NC(=O)[C@@H]1CCCN1C(=O)CNC(=O)[C@](C)(Cc1ccccc1)NC(=O)[C@H](CC(N)=O)NC(=O)[C@H](CC(N)=O)NC(=O)[C@H](CO)NC(=O)[C@H](CO)NC(=O)[C@H](Cc1c[nH]cn1)NC(=O)[C@@H](NC(=O)[C@H](CC(C)C)NC(=O)[C@H](Cc1ccccc1)NC(=O)[C@H](CC(N)=O)NC(=O)[C@H](C)NC(=O)[C@H](CC(C)C)NC(=O)[C@H](CCCNC(=N)N)NC(=O)[C@H](CCC(N)=O)NC(=O)[C@@H](NC(=O)[C@H](C)NC(=O)[C@@H]1CSSC[C@H](NC(=O)[C@@H](N)CCCCNC(=O)CC[C@H](NC(=O)CC[C@H](NC(=O)CCCCCCCCCCCCCCCCC(=O)O)C(=O)O)C(=O)O)C(=O)N[C@@H](CC(N)=O)C(=O)N[C@@H]([C@@H](C)O)C(=O)N[C@@H](C)C(=O)N[C@@H]([C@@H](C)O)C(=O)N1)[C@@H](C)O)C(C)C)C(=O)N[C@@H](CC(C)C)C(=O)N1CCC[C@H]1C(=O)N1CCC[C@H]1C(=O)N[C@H](C(=O)N[C@@H](CCCNC(=N)N)C(=O)N[C@H](C(=O)NCC(=O)N[C@@H](CO)C(=O)N[C@@H](CC(N)=O)C(=O)N[C@H](C(=O)N[C@@H](Cc1ccc(O)cc1)C(N)=O)[C@@H](C)O)C(C)C)[C@@H](C)O [Peptide 24, K(γE-γE-C18diacid)[CNTATC]ATQRLANFLVHSSNN(αMePhe)GPILPPTRVGSNTY-amide] (H-K([γGlu-γGlu-C18 diacid])CNTATCATQRLANFLVHSSNN[αMeF]GPILPPTRVGSNTY-NH2; disulfide 2-7; N-terminus assumed) | >144
CC[C@H](C)[C@H](NC(=O)[C@@H]1CCCN1C(=O)CNC(=O)[C@](C)(Cc1ccccc1)NC(=O)[C@H](CC(N)=O)NC(=O)[C@H](CC(N)=O)NC(=O)[C@H](CO)NC(=O)[C@H](CO)NC(=O)[C@H](Cc1c[nH]cn1)NC(=O)[C@@H](NC(=O)[C@H](CC(C)C)NC(=O)[C@H](Cc1ccccc1)NC(=O)[C@H](CC(N)=O)NC(=O)[C@H](C)NC(=O)[C@H](CC(C)C)NC(=O)[C@H](CCCNC(=N)N)NC(=O)[C@H](CCC(N)=O)NC(=O)[C@@H](NC(=O)[C@H](C)NC(=O)[C@@H]1CSSC[C@H](NC(=O)[C@@H](N)CCCCNC(=O)CC[C@H](NC(=O)CCCCCCCCCCCCCCCCC(=O)O)C(=O)O)C(=O)N[C@@H](CC(N)=O)C(=O)N[C@@H]([C@@H](C)O)C(=O)N[C@@H](C)C(=O)N[C@@H]([C@@H](C)O)C(=O)N1)[C@@H](C)O)C(C)C)C(=O)N[C@@H](CC(C)C)C(=O)N1CCC[C@H]1C(=O)N1CCC[C@H]1C(=O)N[C@H](C(=O)N[C@@H](CCCNC(=N)N)C(=O)N[C@H](C(=O)NCC(=O)N[C@@H](CO)C(=O)N[C@@H](CC(N)=O)C(=O)N[C@H](C(=O)N[C@@H](Cc1ccc(O)cc1)C(N)=O)[C@@H](C)O)C(C)C)[C@@H](C)O [Peptide 25, K(γE-C18diacid)[CNTATC]ATQRLANFLVHSSNN(αMePhe)GPILPPTRVGSNTY-amide] (H-K([γGlu-C18 diacid])CNTATCATQRLANFLVHSSNN[αMeF]GPILPPTRVGSNTY-NH2; disulfide 2-7; N-terminus assumed) | >144
CC[C@H](C)[C@H](NC(=O)[C@@H]1CCCN1C(=O)CNC(=O)[C@H](Cc1ccccc1)NC(=O)[C@H](CC(N)=O)NC(=O)[C@H](CCN)NC(=O)[C@H](CO)NC(=O)[C@H](CO)NC(=O)[C@H](Cc1c[nH]cn1)NC(=O)[C@@H](NC(=O)[C@H](CC(C)C)NC(=O)[C@H](Cc1ccccc1)NC(=O)[C@H](CC(N)=O)NC(=O)[C@H](C)NC(=O)[C@H](CC(C)C)NC(=O)[C@H](CCCNC(=N)N)NC(=O)[C@H](CCC(N)=O)NC(=O)[C@@H](NC(=O)[C@H](C)NC(=O)[C@@H]1CSSC[C@H](NC(=O)[C@H](CCCCN)NC(=O)[C@@H](N)CCCCNC(=O)CC[C@H](NC(=O)CCCCCCCCCCCCCCCCC(=O)O)C(=O)O)C(=O)N[C@@H](CC(N)=O)C(=O)N[C@@H]([C@@H](C)O)C(=O)N[C@@H](C)C(=O)N[C@@H]([C@@H](C)O)C(=O)N1)[C@@H](C)O)C(C)C)C(=O)N[C@@H](CC(C)C)C(=O)N1CCC[C@H]1C(=O)N1CCC[C@H]1C(=O)N[C@H](C(=O)N[C@@H](CCC(=O)O)C(=O)N[C@H](C(=O)NCC(=O)N[C@@H](CO)C(=O)N[C@@H](CC(N)=O)C(=O)N[C@H](C(=O)N[C@@H](Cc1ccc(O)cc1)C(N)=O)[C@@H](C)O)C(C)C)[C@@H](C)O [Peptide 28, K(γE-C18diacid)K[CNTATC]ATQRLANFLVHSS(Dab)NFGPILPPTEVGSNTY-amide] (H-K([γGlu-C18 diacid])KCNTATCATQRLANFLVHSS[Dab]NFGPILPPTEVGSNTY-NH2; disulfide 3-8; N-terminus assumed) | 45
CC[C@H](C)[C@H](NC(=O)[C@@H]1CCCN1C(=O)CNC(=O)[C@H](Cc1ccccc1)NC(=O)[C@H](CC(N)=O)NC(=O)[C@H](CC(N)=O)NC(=O)[C@H](CO)NC(=O)[C@H](CO)NC(=O)[C@H](Cc1c[nH]cn1)NC(=O)[C@@H](NC(=O)[C@H](CC(C)C)NC(=O)[C@H](Cc1ccccc1)NC(=O)[C@H](CCN)NC(=O)[C@H](C)NC(=O)[C@H](CC(C)C)NC(=O)[C@H](CCCNC(=N)N)NC(=O)[C@H](CCC(N)=O)NC(=O)[C@@H](NC(=O)[C@H](C)NC(=O)[C@@H]1CSSC[C@H](NC(=O)[C@H](CCCCN)NC(=O)[C@@H](N)CCCCNC(=O)CC[C@H](NC(=O)CCCCCCCCCCCCCCCCC(=O)O)C(=O)O)C(=O)N[C@@H](CC(N)=O)C(=O)N[C@@H]([C@@H](C)O)C(=O)N[C@@H](C)C(=O)N[C@@H]([C@@H](C)O)C(=O)N1)[C@@H](C)O)C(C)C)C(=O)N[C@@H](CC(C)C)C(=O)N1CCC[C@H]1C(=O)N1CCC[C@H]1C(=O)N[C@H](C(=O)N[C@@H](CC(N)=O)C(=O)N[C@H](C(=O)NCC(=O)N[C@@H](CO)C(=O)N[C@@H](CC(N)=O)C(=O)N[C@H](C(=O)N[C@@H](Cc1ccc(O)cc1)C(N)=O)[C@@H](C)O)C(C)C)[C@@H](C)O [Peptide 33] (H-K([γGlu-C18 diacid])KCNTATCATQRLA[Dab]FLVHSSNNFGPILPPTNVGSNTY-NH2; disulfide 3-8; N-terminus assumed) | >144
CC[C@H](C)[C@H](NC(=O)[C@@H]1CCCN1C(=O)CNC(=O)[C@H](Cc1ccccc1)NC(=O)[C@H](CC(N)=O)NC(=O)C(C)(C)NC(=O)[C@H](CO)NC(=O)[C@H](CO)NC(=O)[C@H](Cc1c[nH]cn1)NC(=O)[C@@H](NC(=O)[C@H](CC(C)C)NC(=O)[C@H](Cc1ccccc1)NC(=O)[C@H](CC(N)=O)NC(=O)[C@H](C)NC(=O)[C@H](CC(C)C)NC(=O)[C@H](CCCNC(=N)N)NC(=O)[C@H](CCC(N)=O)NC(=O)[C@@H](NC(=O)[C@H](C)NC(=O)[C@@H]1CSSC[C@H](NC(=O)[C@H](CCCCN)NC(=O)[C@@H](N)CCCCNC(=O)CC[C@H](NC(=O)CCCCCCCCCCCCCCCCC(=O)O)C(=O)O)C(=O)N[C@@H](CC(N)=O)C(=O)N[C@@H]([C@@H](C)O)C(=O)N[C@@H](C)C(=O)N[C@@H]([C@@H](C)O)C(=O)N1)[C@@H](C)O)C(C)C)C(=O)N[C@@H](CC(C)C)C(=O)N1CCC[C@H]1C(=O)N1CCC[C@H]1C(=O)N[C@H](C(=O)N[C@@H](Cc1c[nH]cn1)C(=O)N[C@H](C(=O)NCC(=O)N[C@@H](CO)C(=O)N[C@@H](CC(N)=O)C(=O)N[C@H](C(=O)N[C@@H](Cc1ccc(O)cc1)C(N)=O)[C@@H](C)O)C(C)C)[C@@H](C)O [Peptide 40, K(γE-C18diacid)K[CNTATC]ATQRLANFLVHSS(Aib)NFGPILPPTHVGSNTY-amide] (H-K([γGlu-C18 diacid])KCNTATCATQRLANFLVHSS[Aib]NFGPILPPTHVGSNTY-NH2; disulfide 3-8; N-terminus assumed) | >144
